“Also recorded” adds a separate entry of the source.

The subject of test [1] is human hair follicle formation in grafted DECs. The test is described as follows: Dermal-epidermal composites (DECs) grafted onto nude mice. It is filed as in vivo, NIH(S)-nu/nu female mice. Here is the method:
We next asked if TNS peptides could increase human hair follicle formation in grafted dermal-epidermal composite cultures. Human dermal papilla cells isolated from temporal scalp dermis and propagated in vitro. Normal foreskin keratinocytes (NFK) were isolated from neonatal foreskins (pooled from 5-7 donors) and were cultured in serum-free medium supplemented with EGF and bovine pituitary extract. Dermal epidermal composites (DECs) were prepared with human dermal papilla cells and NFK and were grafted onto nude mice. Imaging was done at 4 weeks, 6 weeks, 8 weeks, 10 weeks and 12 weeks and staining for hHLA was performed to evaluate hair follicle anatomy (FIG. 3). TSN peptides increased hair follicle generation (FIG. 3) as well as increased epidermal proliferation in vivo (FIG. 4).
Dermal-epidermal composites and grafting: Human dermal papilla cells isolated from temporal scalp dermis (Promocell, Heidelberg, Germany) from a donor (HDP47) were propagated in vitro according to manufacturer's recommendations. Normal foreskin keratinocytes (NFK) were isolated from neonatal foreskins (pooled from 5-7 donors) and were cultured in serum-free medium (Keratinocyte-SFM, Invitrogen), supplemented with EGF and bovine pituitary extract according to manufacturer's recommendation. Dermal epidermal composites (DECs) were prepared with human dermal papilla cells and NFK and were grafted onto nude mice. […]

The test system of test [2] is X-ray irradiated and wounded mice. The test is described as follows: Combined injury murine model (thoracic X-ray irradiation plus wound). The format is in vivo, C57BL/6 mice. From the text:
The C57BL/6 strain of mice has been utilized extensively for the study of radiation-induced skin injuries. We determined that 16 Gy is the minimal dosage for the induction of radiation burns in C57BL/6 mice that are not repaired within 45 days. Sham irradiated mice without wounds were used as controls for radiation dermatitis, and treated identically as irradiated mice. Wounded mice, without radiation, were used as controls for combined injury.
Animals were irradiated in the RS2000 small animal irradiator. The RS2000 provides a cone-shaped radiation field with irradiation at 12.39-40.50 cm from the X-ray source. For dose measurements, irradiation was performed with the following settings: 160 kVp, 25 mA, 90 s irradiation time and 0.3 mm Cu beam filtration. The approximate HVL provided by the manufacturer was 0.62 mm Cu. The University of Wisconsin Medical Radiation Research Center (UW MRRC) provided eight acrylic mouse phantoms with three (1×1×1 mm) Harshaw thermoluminenscence dosimeter (TLD)-100 microcubes (ThermoElectron Corp., Oakwood Village, OH) embedded in each phantom. The cylindrical phantom had dimensions of 27 mm in diameter (D)×65 mm in length (L) and was stabilized by a cylindrical insert 15 mm (D)×27 mm (L) with a 3 mm thick stand. A custom lead shield was placed on the floor of the irradiator, with the mouse thoracic region ˜43.75 cm from the X-ray source. Dose measurements were conducted twice to account for set-up error and reproducibility. TLDs were processed at UW MRRC using a national standard with an expanded uncertainty (k=2) of 5%. The dose rate was reported for each aperture position 1-4 as an absorbed dose rate to water (ADRW, Gy/min) and the two repeated measurements were averaged.
Mice (12-14 weeks of age) were anesthetized using inhaled anesthesia (isoflurane), and the fur was clipped on the dorsal side of the thoracic region. Two days after fur clipping, mice to be used for combined injury were given acetaminophen (150 mg/kg in 0.5 ml sterile saline) by gavage. Animals were then anesthetized with injected anesthesia (150 mg/kg ketamine/18 mg/kg xylazine) and placed in Lucite jigs for exposure to 16.5 Gy thoracic irradiation in the RS2000 X-ray irradiator as previously described. For combined injury, immediately following thoracic irradiation and while still under anesthesia, the area of the skin was scrubbed with betadine or chlorhexidine, followed by cleaning with an alcohol pad. A 9/16 inch diameter punch biopsy tool was used to create a 1 cm wound in the central dorsal thoracic region, roughly in the center of the field of radiation exposure. The panniculus carnosus muscle and overlying skin will be removed. The wound will be left open to air. The size of the wound approximates 15% of the total body skin surface.
TSN6 peptide (5 μg/day in 50 μl sterile saline) or hepatocyte growth factor (HGF; 3.3 μg/day in 50 μl sterile saline) or vehicle (sterile saline, 50 μl) were injected subcutaneously on days 2, 7 and 10 post-irradiation. Injections were made caudal, adjacent to the irradiated or irradiated/wounded area.
Animals were monitored daily for 85 days post-irradiation for both radiation dermatitis and combined injury models. Radiation dermatitis was separately scored for hair loss, erythema, scale, and ulceration. Scoring for erythema, scale and ulceration were previously described: 0=none; 1=minimal; 2=mild; 3=moderate; 4=marked. Because all animals underwent fur clipping prior to irradiation and wounding, scoring for hair loss was determined as failure to regrow hair in the irradiated areas: 0=none; 1=minimal; 2=mild; 3=moderate; 4=marked. Animals were photographed for the measurement of wounds and for dermatitis scoring. […] Weight was measured as an indication of overall health.

Where [3] appears, read: 16.5 Gy plus wound, s.c. days 2, 7, 10, TSN6 5 μg/day, HGF 3.3 μg/day.

For the sequence “HSPDIQLQKGLTFEPIQIK [TSN6, 19 amino acid peptide derived from multimerin-1, Coiled coil domain]”, in test [1] (1 μM peptide vs scrambled, P=0.08 (FIG. 4)), the “epidermal proliferation in vivo (Ki-67+ cells in epidermis of grafts)” value is listed as “stimulates epidermal proliferation”. Moreover, the “human hair follicle formation in grafted DECs” value in test [1] (12 weeks after grafting, human HLA staining, vs TSN6-scrambled (FIG. 3)) is listed as “increases human hair follicle formation”. Besides, the “time to wound closure in the presence of radiation” value in test [2] (16.5 Gy plus 9/16 inch wound, TSN6 5 μg/day s.c. days 2, 7, 10, irradiated vehicle ~30 days, no radiation ~14 days) is on record as “about 16 days post-irradiation”. Besides, the “combined injury (overall)” value in test [2] (16.5 Gy plus wound, TSN6 5 μg/day s.c. days 2, 7, 10 (FIG. 7)) is recorded as “Mitigation of combined injury”. In test [2] (setting [3]), the “characteristics of radiation dermatitis (hair loss, scale, erythema, ulceration) including combined score” value is “markedly reduced” and the “rate of wound closure / wound repair” value is on record as “increased the rate of wound closure”. Moreover, in test [2] (57, 71 and 75/79 days post-irradiation, vs vehicle (FIG. 13)), the “radiation dermatitis in images of mice” value was “vast improvement; also recorded: improves radiation dermatitis”. The wound closure result in test [2] (79 days post-irradiation (FIG. 13C)) is “full wound closure”. For the same sequence, in test [2] (79 days post-irradiation, vehicle: no hair regrowth (FIG. 13)), the hair regrowth result is given as “hair regrowth; also recorded: regrows pigmented hair”.

The record behind these values is patent US20250276999A1, “PEPTIDES FOR PROMOTING HAIR FOLLICLE NEOGENESIS, AND PREVENTION/MITIGATION OF UNTOWARD EFFECTS OF RADIATION TREATMENT” (Trustees of Tufts College, priority 2022, published 2025).
